Results reported in DBAASP.
Converted amounts (≈) assume the structure as drawn. Each block holds one compound with its values, some of them ahead of it.

Experiments:
Experiment in all cases: ≥ marks a high value that may be exact or a test limit, other limits are often not marked, values filed in µg/mL are converted to µM
[1] = tested on: Streptococcus pyogenes M1T1 5448
[2] = tested on: Pseudomonas aeruginosa PAO1
[3] = tested on: Escherichia coli BL21
[4] = tested on: Escherichia coli ATCC 25922
[5] = tested on: Klebsiella pneumoniae ATCC 13833
[6] = tested on: Pseudomonas aeruginosa ATCC 27853
[7] = tested on: Candida albicans ATCC 90028
[8] = tested on: Cryptococcus neoformans B3501
[9] = tested on: Staphylococcus aureus ATCC 25923
[10] = tested on: Salmonella enterica subsp. enterica serovar Typhimurium ATCC 14028
[11] = tested on: Micrococcus luteus ATCC 4698
[12] = tested on: Bacillus subtilis KCTC 1021
[13] = tested on: Serratia marcescens
[14] = tested on: Klebsiella pneumoniae ATCC 10031
[15] = tested on: Pseudomonas aeruginosa ATCC 9027
[16] = tested on: Escherichia coli
[17] = tested on: Shigella dysenteriae ATCC 9752
[18] = tested on: Escherichia coli C600
[19] = tested on: Staphylococcus aureus 209P
[20] = tested on: Klebsiella pneumoniae
[21] = tested on: Mannheimia haemolytica Serovar 1
[22] = tested on: Corynebacterium pseudotuberculosis ATCC 19410
[23] = tested on: Mannheimia haemolytica Serovar 2
[24] = tested on: Pasteurella multocida
[25] = tested on: Staphylococcus aureus
[26] = tested on: Salmonella enterica subsp. arizonae
[27] = tested on: Mannheimia haemolytica Serovar 6
[28] = tested on: Bibersteinia trehalosi
[29] = tested on: Aspergillus fumigatus
[30] = tested on: Staphylococcus aureus USA 300

MIC [1]: 1 µM (≈ 3.1 µg/mL) | MIC [2]: 8 µM (≈ 24.8 µg/mL) | MIC [3]: 0.25 µM (≈ 0.775 µg/mL)
SMILES: CC[C@H](C)[C@H](NC(=O)[C@H](CCCN=C(N)N)NC(=O)CNC(=O)[C@@H](NC(=O)[C@H](CCCCN)NC(=O)[C@H](CCCN=C(N)N)NC(=O)[C@@H](NC(=O)[C@H](Cc1ccc(O)cc1)NC(=O)[C@H](CCCN=C(N)N)NC(=O)[C@H](CCCN=C(N)N)NC(=O)[C@H](CC(C)C)NC(=O)[C@H](CCC(=O)O)NC(=O)[C@H](CCCCN)NC(=O)[C@H](C)NC(=O)[C@@H](NC(=O)[C@H](CCCN=C(N)N)NC(=O)[C@H](CC(N)=O)NC(=O)[C@@H](NC(=O)CNC(=O)[C@H](C)N)[C@@H](C)O)[C@@H](C)CC)[C@@H](C)CC)C(C)C)C(=O)N[C@@H](C)C(=O)N[C@@H](CCCN=C(N)N)C(=O)N[C@@H](CCCCN)C(=O)N[C@@H](Cc1c[nH]c2ccccc12)C(=O)N[C@@H](Cc1c[nH]c2ccccc12)C(=O)O [AGTNRIAKELRRYIRKVGRIARKWW]

MIC [4]: 4 µM (≈ 9.82 µg/mL) | MIC [5]: 4 µM (≈ 9.82 µg/mL) | MIC [6]: 8 µM (≈ 19.6 µg/mL) | MIC [7]: 8 µM (≈ 19.6 µg/mL) | MIC [8]: 2 µM (≈ 4.91 µg/mL) | MIC [9]: 4 µM (≈ 9.82 µg/mL)
SMILES: CC[C@H](C)[C@H](NC(=O)[C@H](Cc1cnc[nH]1)NC(=O)[C@H](C)NC(=O)[C@H](Cc1ccc(O)cc1)NC(=O)[C@@H](NC(=O)[C@H](CCCN=C(N)N)NC(=O)[C@H](Cc1ccccc1)NC(=O)[C@H](CC(C)C)NC(=O)[C@H](CCCN=C(N)N)NC(=O)[C@H](CCCCN)NC(=O)[C@H](CC(C)C)NC(=O)[C@@H](NC(=O)[C@@H](NC(=O)[C@H](CCCCN)NC(=O)[C@H](C)NC(=O)[C@@H](NC(=O)[C@H](CO)NC(=O)[C@H](CCSC)NC(=O)[C@@H](N)Cc1ccccc1)C(C)C)[C@@H](C)O)[C@@H](C)CC)C(C)C)C(=O)N[C@@H](Cc1ccc(O)cc1)C(N)=O [FMSVAKTILKRLFRVYAHIY]

MIC [10]: > 84.8 µM | MIC [11]: ≥ 84.8 µM | MIC [12]: ≥ 84.8 µM | MIC [13]: ≥ 84.8 µM | MIC [14]: ≥ 84.8 µM | MIC [15]: > 84.8 µM | MIC [16]: > 84.8 µM | MIC [17]: ≥ 84.8 µM
SMILES: CC[C@H](C)[C@H](NC(=O)CN)C(=O)N[C@@H](CC(C)C)C(=O)N[C@@H](CC(=O)O)C(=O)N[C@H](C(=O)N[C@@H](CC(C)C)C(=O)N[C@@H](CCCCN)C(=O)N[C@@H](CCC(N)=O)C(=O)N[C@@H](Cc1ccccc1)C(=O)N[C@@H](C)C(=O)N[C@@H](CCCCN)C(=O)NCC(=O)N[C@H](C(=O)NCC(=O)N[C@@H](CCCCN)C(=O)N[C@@H](CC(=O)O)C(=O)N[C@@H](CC(C)C)C(=O)N[C@H](C(=O)N[C@@H](CCCCN)C(=O)NCC(=O)N[C@@H](C)C(=O)N[C@@H](C)C(=O)N[C@@H](CCC(N)=O)C(=O)O)C(C)C)C(C)C)[C@@H](C)O [GILDTLKQFAKGVGKDLVKGAAQ]

MIC [2]: 6.25 µM (≈ 14.1 µg/mL) | MIC [18]: 1.56 µM (≈ 3.52 µg/mL) | MIC [19]: 3.13 µM (≈ 7.07 µg/mL)
SMILES: CC[C@H](C)[C@@H]1NC(=O)CNC(=O)[C@H](CCCN=C(N)N)NC(=O)[C@H](CCCN=C(N)N)NC(=O)[C@@H]2CSSC[C@H](NC1=O)C(=O)N[C@@H](Cc1ccc(O)cc1)C(=O)N[C@@H](CCCN=C(N)N)C(=O)N[C@@H](CCCN=C(N)N)C(=O)N[C@H](C(=O)N[C@@H](CCCN=C(N)N)C(=O)O)CSSC[C@H](NC(=O)[C@H](Cc1c[nH]c3ccccc13)NC(=O)[C@@H](N)CCCCN)C(=O)N[C@@H](Cc1ccccc1)C(=O)N[C@@H](CCCN=C(N)N)C(=O)N[C@@H](C(C)C)C(=O)N2 [KWCFRVCRRGICYRRCR]

MIC [2]: 3.13 µM (≈ 6.85 µg/mL) | MIC [18]: 0.8 µM (≈ 1.75 µg/mL) | MIC [19]: 3.13 µM (≈ 6.85 µg/mL)
SMILES: CC[C@H](C)[C@@H]1NC(=O)CNC(=O)[C@H](CCCN=C(N)N)NC(=O)[C@H](CO)NC(=O)[C@@H]2CSSC[C@H](NC1=O)C(=O)N[C@@H](Cc1ccc(O)cc1)C(=O)N[C@@H](CCCN=C(N)N)C(=O)N[C@@H](CCCN=C(N)N)C(=O)N[C@H](C(=O)N[C@@H](CCCN=C(N)N)C(=O)O)CSSC[C@H](NC(=O)[C@H](Cc1c[nH]c3ccccc13)NC(=O)[C@@H](N)CCCCN)C(=O)N[C@@H](Cc1ccccc1)C(=O)N[C@@H](CCCN=C(N)N)C(=O)N[C@@H](C(C)C)C(=O)N2 [KWCFRVCSRGICYRRCR]

MIC [4]: 8 µM (≈ 16.5 µg/mL) | MIC [5]: 8 µM (≈ 16.5 µg/mL) | MIC [6]: 16 µM (≈ 33 µg/mL) | MIC [7]: 16 µM (≈ 33 µg/mL) | MIC [8]: 4 µM (≈ 8.24 µg/mL) | MIC [9]: 8 µM (≈ 16.5 µg/mL)
SMILES: CC[C@H](C)[C@H](NC(=O)[C@H](CCCN=C(N)N)NC(=O)[C@H](CC(N)=O)NC(=O)[C@H](Cc1ccccc1)NC(=O)[C@H](CC(C)C)NC(=O)CNC(=O)[C@H](CCSC)NC(=O)[C@@H](N)CC(C)C)C(=O)N[C@H](C(=O)N[C@@H](CCCN=C(N)N)C(=O)N[C@@H](CCCCN)C(=O)N[C@H](C(=O)N[C@H](C(=O)N[C@@H](CCCCN)C(=O)N[C@@H](CC(C)C)C(=O)N[C@@H](Cc1ccccc1)C(=O)N[C@@H](CC(N)=O)C(N)=O)C(C)C)C(C)C)[C@@H](C)CC [LMGLFNRIIRKVVKLFN]

MIC [20]: 0.626 µM (≈ 1.3 µg/mL) | MIC [22]: 9.63 µM (≈ 20 µg/mL) | MIC [24]: 1.01 µM (≈ 2.1 µg/mL) | MIC [25]: 4.81 µM (≈ 10 µg/mL) | MIC [2]: 1.2 µM (≈ 2.5 µg/mL) | MIC [26]: 2.41 µM (≈ 5 µg/mL) | MIC [28]: 1.01 µM (≈ 2.1 µg/mL) | MIC [29]: 6.4 µM (≈ 13.3 µg/mL)
SMILES: CC[C@H](C)[C@H](NC(=O)[C@H](CCCN=C(N)N)NC(=O)[C@H](CCCN=C(N)N)NC(=O)[C@H](CC(C)C)NC(=O)[C@@H](N)CC(N)=O)C(=O)N[C@H](C(=O)N[C@@H](CCCN=C(N)N)C(=O)N[C@@H](CCCCN)C(=O)N[C@H](C(=O)N[C@H](C(=O)N[C@@H](Cc1cnc[nH]1)C(=O)N[C@H](C(=O)N[C@H](C(=O)N[C@@H](CCCCN)C(=O)N[C@@H](CCCCN)C(=O)N[C@@H](Cc1ccc(O)cc1)C(=O)O)[C@@H](C)CC)[C@@H](C)CC)[C@@H](C)CC)[C@@H](C)CC)[C@@H](C)CC [NLRRIIRKIIHIIKKY]
MIC [21]: 0.626 µM (≈ 1.3 µg/mL) | MIC [23]: 2.41 µM (≈ 5 µg/mL) | MIC [27]: 1.2 µM (≈ 2.5 µg/mL)

MIC [20]: > 12.8 µM | MIC [22]: 12.8 µM (≈ 20 µg/mL) | MIC [24]: 12.8 µM (≈ 20 µg/mL) | MIC [25]: > 12.8 µM | MIC [2]: 1.09 µM (≈ 1.7 µg/mL) | MIC [26]: 12.8 µM (≈ 20 µg/mL) | MIC [28]: 12.8 µM (≈ 20 µg/mL) | MIC [29]: 17.1 µM (≈ 26.7 µg/mL)
SMILES: CC[C@H](C)[C@H](NC(=O)[C@H](Cc1cnc[nH]1)NC(=O)[C@@H](NC(=O)[C@@H](NC(=O)[C@H](CCCCN)NC(=O)[C@H](CCCN=C(N)N)NC(=O)[C@@H](NC(=O)[C@@H](NC(=O)[C@H](CCCN=C(N)N)NC(=O)[C@@H](N)CCCN=C(N)N)[C@@H](C)CC)[C@@H](C)CC)[C@@H](C)CC)[C@@H](C)CC)C(=O)N[C@H](C(=O)N[C@@H](CCCCN)C(N)=O)[C@@H](C)CC [RRIIRKIIHIIK]
MIC [21]: 12.8 µM (≈ 20 µg/mL) | MIC [23]: 6.67 µM (≈ 10.4 µg/mL) | MIC [27]: 4.3 µM (≈ 6.7 µg/mL)

MIC [1]: 0.25 µM (≈ 0.775 µg/mL) | MIC [2]: 8 µM (≈ 24.8 µg/mL) | MIC [3]: 1 µM (≈ 3.1 µg/mL) | MIC [30]: 16 µM (≈ 49.6 µg/mL)
SMILES: CC[C@H](C)[C@H](NC(=O)[C@H](CCCN=C(N)N)NC(=O)CNC(=O)[C@@H](NC(=O)[C@H](CCCCN)NC(=O)[C@H](CCCN=C(N)N)NC(=O)[C@@H](NC(=O)[C@H](Cc1ccc(O)cc1)NC(=O)[C@H](CCCN=C(N)N)NC(=O)[C@H](CCCN=C(N)N)NC(=O)[C@H](CC(C)C)NC(=O)[C@H](CCC(=O)O)NC(=O)[C@H](CCCCN)NC(=O)[C@H](C)NC(=O)[C@@H](NC(=O)[C@H](CCCN=C(N)N)NC(=O)[C@H](CC(N)=O)NC(=O)[C@@H](NC(=O)CNC(=O)[C@@H](N)Cc1c[nH]c2ccccc12)[C@@H](C)O)[C@@H](C)CC)[C@@H](C)CC)C(C)C)C(=O)N[C@@H](C)C(=O)N[C@@H](CCCN=C(N)N)C(=O)N[C@@H](CCCCN)C(=O)N[C@@H](C)C(=O)N[C@@H](Cc1c[nH]c2ccccc12)C(=O)O [WGTNRIAKELRRYIRKVGRIARKAW]
